Experimental data from paper PMC7156724, “Potent BRD4 inhibitor suppresses cancer cell-macrophage interaction” (Nature Communications, 2020).
Several values for one entry are separate records, joined by “and”; a condition that tells them apart may be missing. Identical values can stand only once. Like-named read-outs stand apart in the source and are kept apart here.

Assay: In vivo pharmacokinetics study, mouse
Protocol: 4–6 weeks old female BALB/c nude mice were used for most experiments, with the exception of 6–8 weeks old female C57BL/6 mice were used for B16F10 experiments, and 6–8 weeks old male BALB/c nude mice and SD rats were used for pharmacokinetic experiments. All animals were purchased from Shanghai SIPPR-Bk Lab Animal Co., Ltd. All animals were housed under a regimen of 12 h light/12 h dark cycles and specific pathogen-free conditions. 5×10^6 NCI-H526, ES-2, MDA-MB231, A2780, A375, B16F10, and TMD-8 cells (0.1 ml) were injected subcutaneously into female nude mice. The melanoma patient-derived xenograft model was derived from a human melanoma sample (BRAF, NARS and NF1 wild type, and p53 mutant) removed from a patient in Xiangya Hospital. Surgically removed tumor fragments were implanted subcutaneously into female NSG mice. When the tumors grew to ~1000 mm^3, they were harvested and cryopreserved or immediately re-implanted for expansion or experiments. Mouse body weight and tumor sizes were measured every 3 days. Once the tumors grew to 150–200 mm^3, mice were treated with the compounds as described in the Figures. 1 × 10^6 A2780 cells (1 ml) were injected into the abdominal cavity of nude mice. Ascitic volume and tumor weight were measured by an electronic balance. All the procedures were evaluated and approved by the Institutional Animal Care and Use Committee of Central South University and Yale University.
Supplementary Figure 7. Pharmacokinetic profile of NHWD-870 using mouse and rat models.
(a,b) Plasma concentrations of NHWD-870 in healthy (a) mouse and (b) rat after intravenous (IV, 1.75 mg/kg for mouse and 1 mg/kg for rat) and oral (PO, 5 mg/kg) administration. Values shown on the right panels are mean ± SEM from 3 different animals. (c,d) Mean concentrations of NHWD-870 in the lungs (c) and tumors (d) of H526 xenograft model at the indicated hours after oral administration of 3 mg/kg NHWD-870 and BMS-98615821 on day 21. These mice were administrated the indicated drug daily for 21 days. Data are represented as mean ± SEM of 3 independent experiments. Source data are provided as a Source Data file. […]
9. In vivo pharmacokinetics study. Mouse and SD rat models were used to evaluate pharmacokinetic property of NHWD-870. NHWD-870 was administrated […]
Concentration of drugs in plasma, lung and tumor tissues were measured for the indicated time. […]

[1] = male, BALB/c nude, plasma, IV 1.75 mg/kg
[2] = male, BALB/c nude, plasma, PO 5 mg/kg

## Cc1nnn(C)c1-c1cnc2c3c4cnn(C)c4ccc3n([C@H](c3ccccc3)C3CCOCC3)c2c1 [NHWD-870]
IV 1.75 mg/kg
  AUCExtrap: 3.87±2.125%
IV 1.75 mg/kg, 1.75 mg/kg
  T1/2: 1.7 h
IV 1.75 mg/kg, 5 min, individual mice, 1.75 mg/kg
  Plasma concentration: 0.547 µg/mL and 0.518 µg/mL
IV 1.75 mg/kg, 0.25 h, individual mice, 1.75 mg/kg
  Plasma concentration: 0.431 µg/mL and 0.362 µg/mL
IV 1.75 mg/kg, 0.5 h, individual mice, 1.75 mg/kg
  Plasma concentration: 0.399 µg/mL and 0.272 µg/mL
IV 1.75 mg/kg, 1 h, individual mice, 1.75 mg/kg
  Plasma concentration: 0.295 µg/mL and 0.262 µg/mL
IV 1.75 mg/kg, 2 h, individual mice, 1.75 mg/kg
  Plasma concentration: 0.281 µg/mL and 0.264 µg/mL
IV 1.75 mg/kg, 4 h, individual mice, 1.75 mg/kg
  Plasma concentration: 0.215 µg/mL and 0.197 µg/mL
IV 1.75 mg/kg, 8 h, individual mice, 1.75 mg/kg
  Plasma concentration: 0.0412 µg/mL and 0.0708 µg/mL
IV 1.75 mg/kg, 24 h, individual mice, 1.75 mg/kg
  Plasma concentration: 0.000876 µg/mL and 0.00136 µg/mL
PO 5 mg/kg
  AUCExtrap: 3.04±0.685%
PO 5 mg/kg, 5 mg/kg
  F (%), oral bioavailability: 70%
PO 5 mg/kg, 0.25 h, individual mice, 5 mg/kg
  Plasma concentration: 0.515 µg/mL and 0.15 µg/mL and 0.133 µg/mL
PO 5 mg/kg, 0.5 h, individual mice, 5 mg/kg
  Plasma concentration: 0.63 µg/mL and 0.247 µg/mL and 0.269 µg/mL
PO 5 mg/kg, 1 h, individual mice, 5 mg/kg
  Plasma concentration: 0.688 µg/mL and 0.321 µg/mL and 0.337 µg/mL
PO 5 mg/kg, 2 h, individual mice, 5 mg/kg
  Plasma concentration: 0.593 µg/mL and 0.414 µg/mL
PO 5 mg/kg, 4 h, individual mice, 5 mg/kg
  Plasma concentration: 0.308 µg/mL and 0.354 µg/mL
PO 5 mg/kg, 6 h, individual mice, 5 mg/kg
  Plasma concentration: 0.0626 µg/mL and 0.255 µg/mL and 0.189 µg/mL
PO 5 mg/kg, 8 h, individual mice, 5 mg/kg
  Plasma concentration: 0.0372 µg/mL and 0.209 µg/mL and 0.111 µg/mL
PO 5 mg/kg, 24 h, individual mice, 5 mg/kg
  Plasma concentration: 0.000953 µg/mL
[1]
  AUC(0-inf): 0.993 ± 0.281 µg·h/mL
  AUC(0-t): 0.939 ± 0.241 µg·h/mL
  C0: 0.63 ± 0.0705 µg/mL
  MRT inf: 2.22 ± 0.42 h
  clearance: 2.1 ± 0.447 L/h/kg
male, BALB/c nude, plasma, IV 1.75 mg/kg, read-out: Vdss
  Vd: 4.17 ± 0.42 L/kg
[2]
  AUC(0-inf): 2.01 ± 0.165 µg·h/mL
  AUC(0-t): 1.95 ± 0.172 µg·h/mL
  Cmax: 0.467 ± 0.074 µg/mL
  MRT inf: 3.16 ± 0.24 h
  Tmax: 1.33 ± 0.29 h
male, BALB/c nude, plasma, PO 5 mg/kg, 24 h, individual mice, read-out: Plasma concentration
  concentration at 24 h: 0.00194 µg/mL
male, BALB/c nude, plasma, iv, 1.75 mg/kg, IV 1.75 mg/kg
  half-life: 1.73 ± 0.325 h
male, BALB/c nude, plasma, iv, 1.75 mg/kg, IV 1.75 mg/kg, 5 min, individual mice, read-out: Plasma concentration
  concentration at 5 min: 0.614 µg/mL
male, BALB/c nude, plasma, iv, 1.75 mg/kg, IV 1.75 mg/kg, 5 min, mean of 3 mice, read-out: Plasma concentration, Mean
  concentration at 5 min: 0.56 µg/mL
male, BALB/c nude, plasma, iv, 1.75 mg/kg, IV 1.75 mg/kg, 0.25 h, individual mice, read-out: Plasma concentration
  concentration at 0.25 h: 0.491 µg/mL
male, BALB/c nude, plasma, iv, 1.75 mg/kg, IV 1.75 mg/kg, 0.25 h, mean of 3 mice, read-out: Plasma concentration, Mean
  concentration at 0.25 h: 0.428 µg/mL
male, BALB/c nude, plasma, iv, 1.75 mg/kg, IV 1.75 mg/kg, 0.5 h, individual mice, read-out: Plasma concentration
  concentration at 0.5 h: 0.388 µg/mL
